One may read the IC50 as the concentration needed to halve the response being measured.

In experiment [1] the test system is HEK293. Description: IC50 for inhibition of ZIKV NS1 production. How it is done:
(§1)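 HEK293 cells in 1536-well plates were pre-treated with compound for 1 h, infected with ZIKV (MOI 1) for 24 h, and NS1 antigen (intra- plus extracellular) was measured by TR-FRET. Confirmation used 11-point 1:3 dilutions, and IC50 and maximal inhibition were fitted in GraphPad Prism.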

In experiment [2] the test system is HEK293. In words: cytotoxicity IC50 (ATP content, uninfected cells); higher = less cytotoxic. The conditions noted are these: infection: none.
The test system of experiment [3] is HEK293. Description: maximal inhibition of ZIKV NS1 production (% inhibition); higher = stronger antiviral effect. The procedure:
as §1

As for `CCOC(=O)N1CCN(/[N+]([O-])=N/Oc2ccc([N+](=O)[O-])cc2C#N)CC1`, the IC50 with HEK293 [1] is 4.5 µM. Moreover, the “cytotoxicity IC50” value in the experiment on HEK293 [2] was greater than 100 µM. In the experiment on HEK293 [3], this molecule had a maximal inhibition of 74.
On the same counts, the results for `CCc1ccc(OCc2ccccc2C(=O)Nc2ccc3nc(C)cc(N)c3c2)cc1` are 14 µM, 11 µM and 104.
Consider `CCC[C@@H](C=O)NC(=O)[C@H](CC(C)C)NC(=O)[C@H](CC(C)C)NC(=O)OCc1ccccc1`, for which the half-maximal inhibitory concentration (IC50) with HEK293 [1] was determined as 1.6 µM. The “cytotoxicity IC50” value in the experiment on HEK293 [2] is 2.4 µM. This molecule showed a maximal inhibition in the experiment on HEK293 [3] of 94.
For `CC[C@]1(O)C[C@H]2CN(CCc3c([nH]c4ccccc34)[C@@](C(=O)OC)(c3cc4c(cc3OC)N(C=O)[C@H]3[C@@](O)(C(=O)OC)[C@H](OC(C)=O)[C@]5(CC)C=CCN6CC[C@]43[C@@H]65)C2)C1`, in that order: 0.16 µM, greater than 100 µM and 55.
For `COc1cc([C@@H]2c3cc4c(cc3[C@H](O)[C@H]3COC(=O)[C@@H]23)OCO4)cc(OC)c1OC`, in the experiment with HEK293 [1], the IC50 is 2.6 µM. Besides, the “cytotoxicity IC50” value in the experiment on HEK293 [2] is greater than 100 µM. The maximal inhibition with HEK293 [3] came to 68.
For `COc1cccc2c1C(=O)c1c(O)c3c(c(O)c1C2=O)C[C@@](O)(C(=O)CO)C[C@@H]3O[C@H]1C[C@H](N)[C@H](O[C@@H]2CCCCO2)[C@H](C)O1`, in that order: 5.6 µM, greater than 100 µM and 75.
For `Cc1c(N)nc([C@H](CC(N)=O)NC[C@@H](N)C(N)=O)nc1C(=O)N[C@H](C(=O)N[C@@H](C)[C@H](O)[C@@H](C)C(=O)N[C@@H](C(=O)NCCc1nc(-c2nc(C(=O)NCCC[S+](C)C)cs2)cs1)[C@@H](C)O)C(O[C@H]1O[C@H](CO)[C@H](O)[C@@H](O)[C@H]1O[C@H]1O[C@H](CO)[C@@H](O)[C@H](OC(N)=O)[C@@H]1O)c1cnc[nH]1` (stereo partly drawn), in that order: 6.3 µM, greater than 100 µM and 103.
For `COc1c(OCCCN2CCOCC2)ccc2c3n(c(=NC(=O)c4cnc(N)nc4)nc12)CCN3`, in that order: 2.1 µM, 22 µM and 71.
In the case of `Cc1nc2cnc3ccc(C#Cc4cccnc4)cc3c2n1-c1ccc(C(C)(C)C#N)cc1`, the half-maximal inhibitory concentration (IC50) in the experiment on HEK293 [1] was determined as 1.4 µM. Moreover, the “cytotoxicity IC50” value in the experiment with HEK293 [2] is 10 µM. Further, the maximal inhibition in the experiment with HEK293 [3] was 102.
`O[C@@H](CNC[C@H](O)[C@H]1CCc2cc(F)ccc2O1)[C@@H]1CCc2cc(F)ccc2O1`: the IC50 in the experiment on HEK293 [1] stood at 24 µM. Further, the “cytotoxicity IC50” value in the experiment on HEK293 [2] was greater than 100 µM. This molecule yielded a maximal inhibition in the experiment on HEK293 [3] of 94.
In the experiment with HEK293 [1], `CN(C)C(=S)SSC(=S)N(C)C` gave a half-maximal inhibitory concentration (IC50) of 0.51 µM. Further, the “cytotoxicity IC50” value in the experiment with HEK293 [2] worked out at 0.18 µM. For the same molecule, in the experiment on HEK293 [3], the maximal inhibition came out at 99.
For `CC1(C(=O)O)C2CCC(O2)C1(C)C(=O)O` (stereo not drawn), in the experiment with HEK293 [1], the IC50 worked out at 2.6 µM. Besides, the “cytotoxicity IC50” value with HEK293 [2] was greater than 100 µM. In the experiment on HEK293 [3], the maximal inhibition turned out to be 105.
For `Nc1ncn([C@@H]2O[C@H](CO)[C@@H](O)[C@H]2O)c(=O)n1`, in that order: 44 µM, greater than 100 µM and 58.
For `C[n+]1cc2c3c(ccc2c2ccc4cc5c(cc4c21)OCO5)OCO3`, in that order: 2.9 µM, 6.4 µM and 96.
For `CNc1ccc2oc(C[C@H]3O[C@@]4(CC[C@H]3C)O[C@H]([C@H](C)C(=O)c3ccc[nH]3)[C@H](C)C[C@H]4C)nc2c1C(=O)O`, in that order: 6.2 µM, 20 µM and 96.
`C[C@@]12C(=O)OC(=O)[C@]1(C)[C@H]1CC[C@@H]2O1` gave a concentration for half-maximal inhibition (IC50) in the experiment with HEK293 [1] of 5.5 µM. In the experiment on HEK293 [2], the “cytotoxicity IC50” value is greater than 100 µM. The molecule further showed a maximal inhibition with HEK293 [3] of 100.
On to `CC[C@@H]1[C@@H](C)O[C@@](O)([C@@H](C)[C@H](O)[C@H](C)[C@H]2OC(=O)/C=C/C=C/[C@H](C)[C@@H]([C@@H](C)[C@@H](O)[C@H](C)[C@@]3(O)C[C@@H](O[C@H]4C[C@H](O)[C@H](O)[C@H](C)O4)[C@H](CC)[C@@H](C)O3)OC(=O)/C=C/C=C/[C@@H]2C)C[C@H]1O[C@H]1C[C@H](O)[C@H](O)[C@H](C)O1`, for which, in the experiment on HEK293 [1], the IC50 was found to be 3.9 µM. In the experiment on HEK293 [2], the “cytotoxicity IC50” value was 1.5 µM. Also, the maximal inhibition with HEK293 [3] was 100.
With `CO/C1=C\C(C)=C\[C@@H](C)[C@@H](O)[C@@H](C)C/C(C)=C/C=C/[C@H](OC)[C@@H]([C@@H](C)[C@@H](O)[C@H](C)[C@@]2(O)C[C@@H](O)[C@H](C)[C@@H](C(C)C)O2)OC1=O`, the IC50 in the experiment with HEK293 [1] was found to be 5.3 µM. Besides, the “cytotoxicity IC50” value in the experiment with HEK293 [2] came to 80 µM. The molecule further showed a maximal inhibition with HEK293 [3] of 101.
On the same counts, the results for `OCCCNc1cc(-c2ccnc(Nc3cccc(Cl)c3)n2)ccn1` are 0.79 µM, 60 µM and 103.
For `CO[C@@]12[C@H](COC(N)=O)C3=C(C(=O)C(C)=C(N)C3=O)N1C[C@@H]1N[C@@H]12`, in that order: 2.7 µM, 73 µM and 97.
In the experiment with HEK293 [1], `C#C[C@]1(OC(C)=O)CC[C@H]2[C@@H]3CCC4=C/C(=N/O)CC[C@@H]4[C@H]3CC[C@@]21CC` yielded a half-inhibitory concentration (IC50) of 43 µM. In addition, the “cytotoxicity IC50” value in the experiment with HEK293 [2] is greater than 100 µM. This molecule showed a maximal inhibition in the experiment with HEK293 [3] of 48.

Values taken from the supplement of paper PMC8498969.
